Data reported in US20150335055A1, “BEVERAGE PR[…] BASED ON PIMARICIN AND HEADSPACE GAS” (PEPSICO, INC., priority 2013, published 2015).

Assays:
[1] = test system: Zygosaccharomyces strains or Brettanomyces strains; test: 16 week spoilage trial in carbonated lemon-lime beverage (Sierra Mist, 3.6 volumes CO2, PET), Comparative Example 1; assay type: cell-based; conditions: for samples spoiled: period of the test (14 weeks, 98 days), 25° C.
Experimental: […] This beverage is carbonated to 3.6 volumes CO2 in PET containers. Negative control containers received no inoculum. Positive control samples were inoculated with either Zygosaccharomyces strains (907, 28, Marion, HP, Mt. Dew, & SM Soiler) or Brettanomyces strains Dan, H2O2, Cherry 7-UP, 1601-1, and SY-05). […] All samples were then held at 25° C. for the duration of the study. […] 33% of the samples containing 15 ppm spoiled and 100% of samples containing 5 ppm pimaricin spoiled.

[2] = short exposures; cited from earlier work
[3] = Pimaricin concentration over time in Example 1 samples by UV-Visible spectroscopy; assay type: physicochemical; conditions: pimaricin in the absence of cyclodextrin; initial 1.1 ppm; carbonated mock grape beverage, 25° C.
From the text: Such reactions are a consequence of the formation of reactive oxygen species (ROS) wherein oxygen merely serves as an intermediate in the transfer of electrons in REDOX type reactions which ultimately result in the degradation of more complex molecules such as pimaricin. In this regard, O2 behaves similar to a catalyst. Similar to many reactions involving catalyst, the amount of oxygen required to drive in such reactions is very small. In this regard, it is of interest to evaluate the stability of pimaricin in solution under differing conditions of oxygen tension. Clearly, it is also of interest to establish whether the formation of a complex between pimaricin and β-cyclodextrin serves to stabilize pimaricin from degradation by reaction with oxygen. […] Briefly, pimaricin yields a very distinctive UV-visible spectrum with 3 separate absorption maxima. As pimaricin degrades, the peak heights diminish. Degradation can be tracked through the diminishing peak height of any single peak maxima or through changes in relative peak height.
A 16 week trial was conducted with a mock grape 12 Brix 2% grape juice mock glass “pony” 9.8 oz. bottle. Beverages were carbonated to 3.7 and 4.5 volumes. Five containers of each CO2 level were not inoculated and served as negative controls. […]

[4] = test system: yeast which can spoil carbonated beverage; conditions: types of yeast which can spoil carbonated beverage; cited from earlier work
[5] = Solubility of pimaricin in aqueous solution; assay type: physicochemical

(IR,3S,5R,7R,8E,12R,14E,16E,18E,20E,22R,24S,25R,26S)-{[3S,4S,5S,6R)-4-amino-3,5-dihydroxy-6-methyloxan-2-yl]oxy}-1,3,26 trihydroxy-12-methyl-10-oxo-6,11,28-trioxatricyclo[22.3.1.0^5,7]octacosa-8,14,16,18,20 pentaene-25-carboxylic acid [pimaricin]
33%: Onset of Spoilage ([1]; 15 ppm Pimaricin, week 11, day 77) | Onset of Spoilage ([1]; 15 ppm Pimaricin, week 12, day 84) | Onset of Spoilage ([1]; 15 ppm Pimaricin, week 13, day 91) | Onset of Spoilage ([1]; 15 ppm Pimaricin, week 14, day 98) | Onset of Spoilage ([1]; 15 ppm Pimaricin, week 15, day 105) | Onset of Spoilage ([1]; 15 ppm Pimaricin, week 16, day 112) | Onset of Spoilage ([1]; 15 ppm Pimaricin, week 17, day 119) | Onset of Spoilage ([1]; 15 ppm Pimaricin, week 18, day 126) | Onset of Spoilage ([1]; 15 ppm Pimaricin, week 19, day 133) | Onset of Spoilage ([1]; 15 ppm Pimaricin, week 20, day 140) | Onset of Spoilage ([1]; 15 ppm Pimaricin, week 21, day 147) | Onset of Spoilage ([1]; 15 ppm Pimaricin, week 22, day 154) | Onset of Spoilage ([1]; 15 ppm Pimaricin, week 23, day 161) | Onset of Spoilage ([1]; 15 ppm Pimaricin, week 24, day 168) | samples spoiled ([1]; 15 ppm pimaricin)
≥ 120 ° F.: temperature to which antimicrobial activity is stable [2]
0%: Onset of Spoilage ([1]; 5 ppm Pimaricin, week 0, day 0) | Onset of Spoilage ([1]; 5 ppm Pimaricin, week 1, day 7) | Onset of Spoilage ([1]; 5 ppm Pimaricin, week 2, day 14) | Onset of Spoilage ([1]; 5 ppm Pimaricin, week 3, day 21) | Onset of Spoilage ([1]; 5 ppm Pimaricin, week 4, day 28) | Onset of Spoilage ([1]; 5 ppm Pimaricin, week 5, day 35) | Onset of Spoilage ([1]; 5 ppm Pimaricin, week 6, day 42) | Onset of Spoilage ([1]; 5 ppm Pimaricin, week 7, day 49) | Onset of Spoilage ([1]; 5 ppm Pimaricin, week 8, day 56) | Onset of Spoilage ([1]; 15 ppm Pimaricin, week 0, day 0) | Onset of Spoilage ([1]; 15 ppm Pimaricin, week 1, day 7) | Onset of Spoilage ([1]; 15 ppm Pimaricin, week 2, day 14) | Onset of Spoilage ([1]; 15 ppm Pimaricin, week 3, day 21) | Onset of Spoilage ([1]; 15 ppm Pimaricin, week 4, day 28) | Onset of Spoilage ([1]; 15 ppm Pimaricin, week 5, day 35) | Onset of Spoilage ([1]; 15 ppm Pimaricin, week 6, day 42) | Onset of Spoilage ([1]; 15 ppm Pimaricin, week 7, day 49) | Onset of Spoilage ([1]; 15 ppm Pimaricin, week 8, day 56) | Onset of Spoilage ([1]; 15 ppm Pimaricin, week 9, day 63) | Onset of Spoilage ([1]; 15 ppm Pimaricin, week 10, day 70) | Onset of Spoilage ([1]; 25 ppm Pimaricin, week 0, day 0) | Onset of Spoilage ([1]; 25 ppm Pimaricin, week 1, day 7) | Onset of Spoilage ([1]; 25 ppm Pimaricin, week 2, day 14) | Onset of Spoilage ([1]; 25 ppm Pimaricin, week 3, day 21) | Onset of Spoilage ([1]; 25 ppm Pimaricin, week 4, day 28) | Onset of Spoilage ([1]; 25 ppm Pimaricin, week 5, day 35) | Onset of Spoilage ([1]; 25 ppm Pimaricin, week 6, day 42) | Onset of Spoilage ([1]; 25 ppm Pimaricin, week 7, day 49) | Onset of Spoilage ([1]; 25 ppm Pimaricin, week 8, day 56) | Onset of Spoilage ([1]; 25 ppm Pimaricin, week 9, day 63) | Onset of Spoilage ([1]; 25 ppm Pimaricin, week 10, day 70) | Onset of Spoilage ([1]; 25 ppm Pimaricin, week 11, day 77) | Onset of Spoilage ([1]; 25 ppm Pimaricin, week 12, day 84) | Onset of Spoilage ([1]; 25 ppm Pimaricin, week 13, day 91) | Onset of Spoilage ([1]; 25 ppm Pimaricin, week 14, day 98) | Onset of Spoilage ([1]; 25 ppm Pimaricin, week 15, day 105) | Onset of Spoilage ([1]; 25 ppm Pimaricin, week 16, day 112) | Onset of Spoilage ([1]; 25 ppm Pimaricin, week 17, day 119) | Onset of Spoilage ([1]; 25 ppm Pimaricin, week 18, day 126) | Onset of Spoilage ([1]; 25 ppm Pimaricin, week 19, day 133) | Onset of Spoilage ([1]; 25 ppm Pimaricin, week 20, day 140) | Onset of Spoilage ([1]; 25 ppm Pimaricin, week 21, day 147) | Onset of Spoilage ([1]; 25 ppm Pimaricin, week 22, day 154) | Onset of Spoilage ([1]; 25 ppm Pimaricin, week 23, day 161) | Onset of Spoilage ([1]; 25 ppm Pimaricin, week 24, day 168)
remain free of spoilage: freedom from spoilage for duration of shelf-life ([1]; samples which contained 25 ppm pimaricin)
≥ 10 ppm: reported MIC values [4]
20-25 mg 1^−1: limit of solubility in aqueous solution ([5]; in the absence of β-cyclodextrin)
about 35 days: half-life of degradation [3]
None: samples spoiled ([1]; equivalent of 30 mg pimaricin per ml)
75%: Onset of Spoilage ([1]; 5 ppm Pimaricin, week 9, day 63) | Onset of Spoilage ([1]; 5 ppm Pimaricin, week 10, day 70)
100%: Onset of Spoilage ([1]; 5 ppm Pimaricin, week 11, day 77) | Onset of Spoilage ([1]; 5 ppm Pimaricin, week 12, day 84) | Onset of Spoilage ([1]; 5 ppm Pimaricin, week 13, day 91) | Onset of Spoilage ([1]; 5 ppm Pimaricin, week 14, day 98) | Onset of Spoilage ([1]; 5 ppm Pimaricin, week 15, day 105) | Onset of Spoilage ([1]; 5 ppm Pimaricin, week 16, day 112) | Onset of Spoilage ([1]; 5 ppm Pimaricin, week 17, day 119) | Onset of Spoilage ([1]; 5 ppm Pimaricin, week 18, day 126) | Onset of Spoilage ([1]; 5 ppm Pimaricin, week 19, day 133) | Onset of Spoilage ([1]; 5 ppm Pimaricin, week 20, day 140) | Onset of Spoilage ([1]; 5 ppm Pimaricin, week 21, day 147) | Onset of Spoilage ([1]; 5 ppm Pimaricin, week 22, day 154) | Onset of Spoilage ([1]; 5 ppm Pimaricin, week 23, day 161) | Onset of Spoilage ([1]; 5 ppm Pimaricin, week 24, day 168) | samples spoiled ([1]; 5 ppm pimaricin)
20-25 ppm: normal limit of solubility ([5]; beverage of acid pH, 25° C.)
25 ppm: limit of solubility ([5]; high acid beverage)
